ChEMBL document CHEMBL3046762, “Synthesis and biological evaluation of 2-amino-5-sulfanyl-1,3,4-thiadiazole derivatives as antidepressant, anxiolytics and anticonvulsant agents” (2011)
Activity calls are given as the source filed them. The calls are words filed in the database; no cut-off is given here.

Columns and labels:
Rattus norvegicus [1] = assay: Anticonvulsant activity in Rattus norvegicus Wistar albino (rat) assessed as reduction in pentyleneterazole-induced mortality at 4 mg/kg, ip pretreated 30 min prior to pentylenetetrazole challenge; format: functional, organism-based; set-up: dose 4 mg/kg
Rattus norvegicus [2] = assay: Anticonvulsant activity in Rattus norvegicus Wistar albino (rat) assessed as inhibition of pentyleneterazole-induced clonic convulsion measured as onset of convulsion at 30 mg/kg, ip pretreated 30 min prior to pentylenetetrazole challenge (reference value: 48.25 +/- 0.01 sec); format: functional; settings: route intraperitoneal
Rattus norvegicus [3] = assay: Anticonvulsant activity in Rattus norvegicus Wistar albino (rat) assessed as reduction in pentyleneterazole-induced mortality at 30 mg/kg, ip pretreated 30 min prior to pentylenetetrazole challenge; format: functional, organism-based; set-up: dose 30 mg/kg
Mus musculus [4] = assay: Anxiolytic activity in Mus musculus Swiss (mouse) assessed as time spent in light chamber at 30 mg/kg, ip measured after 30 min by light and dark model test (reference value: 130.2 +/- 0.01 sec); format: functional; settings: route intraperitoneal
Rattus norvegicus [5] = assay: Anticonvulsant activity in Rattus norvegicus Wistar albino (rat) assessed as duration of tonic hind limb extensor at 30 mg/kg, ip measured after 30 min by maximal electroshock-induced convulsion test (reference value: 15.71 +/- 0.01 sec); format: functional, Hindlimb; settings: route intraperitoneal
Rattus norvegicus [6] = assay: Anticonvulsant activity in Rattus norvegicus Wistar albino (rat) assessed as protection against maximal electroshock-induced convulsion at 30 mg/kg, ip measured after 30 min; format: functional; settings: route intraperitoneal
Mus musculus [7] = assay: Anxiolytic activity in Mus musculus balb/cj (mouse) assessed as preference to open arm at 30 mg/kg, ip measured after 30 min by elevated pluze maze test; format: functional; settings: route intraperitoneal
Mus musculus [8] = assay: Anxiolytic activity in Mus musculus balb/cj (mouse) assessed as time spent in open arm at 30 mg/kg, ip measured after 30 min by elevated pluze maze test (reference value: 12.25 +/- 0.02 sec); format: functional; settings: route intraperitoneal
Mus musculus [9] = assay: Antidepressant activity in Mus musculus (mouse) assessed as increase in mobile phase at 30 mg/kg, ip measured after 30 min by tail suspension test; format: functional; settings: route intraperitoneal
Mus musculus [10] = assay: Antidepressant activity in Mus musculus (mouse) assessed as decrease in immobility at 30 mg/kg, ip measured after 30 min by despair swim test; format: functional; settings: 0.5 h, route intraperitoneal
Mus musculus [11] = assay: Anxiolytic activity in Mus musculus balb/cj (mouse) assessed as time spent in open arm at 2 mg/kg, ip measured after 30 min by elevated pluze maze test (reference value: 12.25 +/- 0.02 sec); format: functional; settings: route intraperitoneal
Mus musculus [12] = assay: Antidepressant activity in Mus musculus (mouse) assessed as decrease in immobility at 15 mg/kg, ip measured after 30 min by despair swim test; settings: 0.5 h, read-out: INH
Rattus norvegicus [13] = assay: Anticonvulsant activity in Rattus norvegicus Wistar albino (rat) assessed as duration of tonic hind limb extensor at 25 mg/kg, ip measured after 30 min by maximal electroshock-induced convulsion test; format: functional, organism-based; set-up: dose 25 mg/kg; settings: Hindlimb
Rattus norvegicus [14] = assay: Anticonvulsant activity in Rattus norvegicus Wistar albino (rat) assessed as protection against maximal electroshock-induced convulsion at 25 mg/kg, ip measured after 30 min; format: functional; settings: route intraperitoneal

Row | Compound | Activity (Rattus norvegicus [1]) | Time (Rattus norvegicus [2]) [s] | Activity (Rattus norvegicus [3]) | Time (Mus musculus [4]) [s] | Time (Rattus norvegicus [5]) [s] | Activity (Rattus norvegicus [6]) [%] | Activity (Mus musculus [7]) [%] | Time (Mus musculus [8]) [s] | Activity (Mus musculus [9]) [%] | inhibition in vivo at 30 mg/kg (Mus musculus [10]) [%] | Time (Mus musculus [11]) [s] | inhibition in vivo at 15 mg/kg (Mus musculus [12]) [%] | Activity (Rattus norvegicus [13]) | Activity (Rattus norvegicus [14]) [%]
1 | CN1C(=O)CN=C(c2ccccc2)c2cc(Cl)ccc21 | Active | – | – | – | – | – | – | – | – | – | – | – | – | –
2 | Cc1ccc(Nc2nnc(Sc3ccc(S(=O)(=O)Cl)cc3)s2)cc1 | – | 101.26 | Active | 169.25 | 8.01 | 16.66 | 7.58 | 22.2 | 15.19 | 29.2 | – | – | – | –
3 | NS(=O)(=O)c1ccc(Nc2nnc(Sc3ccc(S(N)(=O)=O)cc3)s2)cc1 | – | – | – | 133.2 | 8.25 | 0 | 6.65 | 26.64 | 10.06 | 25.2 | – | – | – | –
4 | O=S(=O)(Cl)c1ccc(Sc2nnc(Nc3ccc(C(Cl)(Cl)Cl)cc3)s2)cc1 | – | 99.9 | Active | 170.5 | 7.01 | 16.66 | 8.75 | 26.2 | 19.16 | 30.2 | – | – | – | –
5 | NS(=O)(=O)c1ccc(Sc2nnc(Nc3ccc(Cl)cc3)s2)cc1 | – | 151.3 | Active | 178.2 | 5.17 | 50 | 16.35 | 45.51 | 33.33 | 29.2 | – | – | – | –
6 | NS(=O)(=O)c1ccc(Sc2nnc(Nc3ccc(S(=O)(=O)Cl)cc3)s2)cc1 | – | 175.2 | Active | 180.25 | 4.69 | 50 | 17.2 | 45.93 | 40.58 | 50.4 | – | – | – | –
7 | O=S(=O)(Cl)c1ccc(Sc2nnc(Nc3ccc(C(F)(F)F)cc3)s2)cc1 | – | 180.25 | Active | 192 | 4.42 | 66.66 | 18.92 | 47.92 | 45.97 | 53.5 | – | – | – | –
8 | NS(=O)(=O)c1ccc(Sc2nnc(Nc3ccc(F)cc3)s2)cc1 | – | 171.25 | Active | 185.9 | 4.5 | 66.66 | 18.01 | 46.31 | 40.31 | 50.5 | – | – | – | –
9 | CNCCC(Oc1ccc(C(F)(F)F)cc1)c1ccccc1.Cl (stereo not drawn) [FLUOXETINE HYDROCHLORIDE] | – | – | – | – | – | – | – | – | – | – | 60.01 | 58.6 | – | –
10 | Cc1ccc(Nc2nnc(Sc3ccc(S(N)(=O)=O)cc3)s2)cc1 | – | 170.26 | Active | 190.25 | 4.52 | 50 | 18.25 | 45.69 | 42.21 | 51.5 | – | – | – | –
11 | NS(=O)(=O)c1ccc(Sc2nnc(Nc3ccc(Br)cc3)s2)cc1 | – | 71.9 | Active | 162.3 | 8.01 | 33.33 | 8.01 | 29.26 | 15.68 | 27.2 | – | – | – | –
12 | O=S(=O)(Cl)c1ccc(Nc2nnc(Sc3ccc(S(=O)(=O)Cl)cc3)s2)cc1 | – | 125.2 | Active | 172.5 | 8.5 | 0 | 7.9 | 27.63 | 10.09 | 25.9 | – | – | – | –
13 | O=S(=O)(Cl)c1ccc(Sc2nnc(Nc3ccc(F)cc3)s2)cc1 | – | 101.26 | Active | 166.3 | 8.25 | 0 | 10.54 | 25.26 | 21.51 | 22.8 | – | – | – | –
14 | O=C1NC(=O)C(c2ccccc2)(c2ccccc2)N1 [PHENYTOIN] | – | – | – | – | – | – | – | – | – | – | – | – | Active | 100
15 | O=S(=O)(Cl)c1ccc(Sc2nnc(Nc3ccc(Br)cc3)s2)cc1 | – | 70.25 | Active | 159.3 | 7.63 | 0 | 9.25 | 25.2 | 20.57 | 30.7 | – | – | – | –
16 | NS(=O)(=O)c1ccc(Sc2nnc(Nc3ccc(C(F)(F)F)cc3)s2)cc1 | – | 126.2 | Active | 151.26 | 7.37 | 33.33 | 8.92 | 23.72 | 31.29 | 27.9 | – | – | – | –
17 | O=S(=O)(Cl)c1ccc(Sc2nnc(Nc3ccc(Cl)cc3)s2)cc1 | – | 63.6 | Active | 151.5 | 7.55 | 16.66 | 9.75 | 30.01 | 15.68 | 23.9 | – | – | – | –
18 | NS(=O)(=O)c1ccc(Sc2nnc(Nc3ccc(C(Cl)(Cl)Cl)cc3)s2)cc1 | – | 106.7 | Active | 162 | 6.96 | 16.66 | 7.85 | 24.2 | 16.39 | 25 | – | – | – | –
